SMILES strings stand for the structures.

From patent US10342806B2, “Hormone treatment for age-related hearing loss-presbycusis” (priority 2014, dated 2019) come the findings set out here.

For one assay, the system named is LC3-I, -II, and LAMP-2. Nature of the assay: Lysosome pathway markers in HT-29 cells, Western blot. It counts as cell-based, human. The settings on record: ALD 1 μM, MG-132 20 μM, CQ 50 μM, 9 h. The method, then:
FIG. 23(A) is a blot and showing ubiquitination, but not the lysosome pathway, is involved in the regulation of NKCC1 by ALD. To exclude the possibility that depletion of free ubiquitin by the prolonged MG-132 treatment triggered nonspecific inhibition of lysosome degradation of NKCC1 and investigate whether ALD is involved in a lysosome pathway, a parallel experiment with chloroquine (CQ) was performed. Here, the positive marks (+) indicate application of ALD (1 μM), MG132 (20 μM), CQ (50 μM), ALD+CQ, and MG132+CQ for 9 h. An autophagosome marker, autophagy-related gene 8 named as light chain 3 (LC3), and the lysosome-associated membrane protein 2 (LAMP-2) were used was indicators of lysosome pathway activation (phagocytic activity) under treatment with CQ.
Western blot. Cell lysates were prepared in RIPA buffer (Pierce 89901; Thermo Scientific, Waltham, Mass.) with protease inhibitor cocktail (78430; Thermo Scientific). Cell samples were homogenized in buffer, followed by centrifugation at 2,000 rpm for 10 min at 4° C. Supernatants were subjected to Western blot analysis by loading 200 μg of protein per lane, after the protein concentrations were determined by Bradford protein assay. Proteins were fractionated by SDS-PAGE gel electrophoresis and transferred to a PVDF blotting membrane (Whatman, Piscataway, N.J.). The blot was incubated with primary antibodies against β-actin and Na—K-2C1 cotransport protein (Cell Signaling, Danvers Mass.); primary antibodies for p-SGK1, SGK1, pNedd4-2, and Nedd4-2 were utilized (concentration 1:1,000). The secondary antibody was horseradish peroxidaseconjugated goat anti-rabbit IgG (1:2,000; Cell Signaling).
Ubiquitination, but not the lysosome pathway, is involved in NKCC1 induction by ALD. A parallel experiment was performed with chloroquine (CQ), a lysosome inhibitor, to exclude the possibility that prolonged MG-132 treatment depleted free ubiquitin by nonspecific inhibition of lysosome degradation of NKCC1 and to confirm whether or not ALD is involved in a lysosome pathway. […]
(In western blotting, separated proteins are transferred to a membrane and probed.)

In the next assay the test system is NKCC1. The experiment in a line: Tl-uptake in single HT-29 cells (FluxOR) for NKCC1 activity. Particulars: 24 single HT-29 cells per condition. It counts as cell-based, human. The source says:
Tl-uptake in single cells for the detection of NKCC1 activity. To measure NKCC1 activity, we used a fluorescence assay to assess cotransporter activity in single isolated HT-29 cells (Delpire & Austin, Kinase regulation of Na^+—K^+-2Cl^− cotransport in primary afferent neurons. J Physiol 588: 3365-3373, 2010, Geng, et al., The Ste20 kinases SPAK and OSR1 regulate NKCC1 function in sensory neurons. J Biol Chem 284: 14020-14028, 2009, Weaver, et al., A thallium-sensitive, fluorescence-based assay for detecting and characterizing potassium channel modulators in mammalian cells. J Biomol Screen 9: 671-677, 2004). HT-29 cells were incubated at 37° C./5% CO2 for 24 h before use. […] For the detection of fluorescence, the preincubation solution was removed, and the cells were treated with a 340.5 mosM hypertonic stimulus solution containing the following (in mM): (2.8 TISO4, 140 NaCl, 2 KCl, 2 CaCl2, 0.8 MgSO4, 5 glucose, 20 HEPES, 27 sucrose, 1 ouabain, and 2.7 probenecid) in the presence or absence of 20 μM bumetanide. […] FluxOR fluorescence (excitation/emission: 488/525 nm) was recorded after 90 s upon addition of 2.8 mM […] to the external medium. […]
Influence of ALD on NKCC1 transporter activity. […] To test this hypothesis, a more efficient and sensitive method, fluorescence Ion flux assays was adopted to measure NKCC1 transporter activity. […]

Consider `C[C@]12CCC(=O)C=C1CC[C@@H]1[C@@H]2[C@@H](O)C[C@]2(C=O)[C@@H](C(=O)CO)CC[C@@H]12` [ALD, aldosterone], for which, in the assay on LC3-I, -II, and LAMP-2, the “lysosome pathway markers LC3II and LAMP-2 expression levels” value was “without increasing lysosome pathway markers”. For the same compound, the “bumetanide-sensitive Tl+ uptake fluorescence” value with NKCC1 is “marked increase in fluorescence”.
